These results are taken from patent publication US6989389B2, “Aryl ether substituted imidazoquinolines” (3M Innovative Properties Co., priority 2000, dated 2006).

Counter-ions that a name gives are not always drawn. Like-named read-outs stand apart in the source and are kept apart here.

Data set [1] has as its system Peripheral blood mononuclear cells (PBMC). As to the kind of experiment: Cytokine Induction in Human Cells (in vitro human blood cell system, IFN and TNF secreted into culture media). The arrangement: key to Lowest Effective Concentration (μM) Tumor Necrosis Factor / Lowest Effective Concentration (μM) Interferon: *: no induction was seen at any of the tested concentrations. The note with it: 18 to 24 hours, tested 30-0.014 μM. It is filed as cell-based. The procedure, abridged: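 Human donor PBMC (2×10^6 cells/mL, RPMI complete) incubated 18–24 h at 37 °C, 5% CO2 with compound, 3-fold dilutions 30–0.014 μM, ≤1% DMSO. IFN-α measured by ELISA, TNF-α by ELISA or IGEN immunoassay in supernatants (pg/mL). Value is lowest concentration inducing each cytokine.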

The mark [2] stands for this setting: Homo sapiens, PBMC, lowest concentration found to induce interferon (α), ELISA, read-out: Lowest Effective Concentration (μM) Interferon.
Setting [3] is: Homo sapiens, PBMC, lowest concentration found to induce tumor necrosis factor (α), ELISA or IGEN assay, read-out: Lowest Effective Concentration (μM) Tumor Necrosis Factor.
The mark [4] stands for this setting: lowest concentration found to induce tumor necrosis factor (α), ELISA or IGEN assay.
Setting [5] is: lowest concentration found to induce interferon (α), ELISA.

Take `Nc1nc2ccccc2c2c1ncn2CCOCCCc1ccc(-n2cccc2)cc1` (as salt: trifluoroacetate) [Example 11, 1-(2-{3-[4-(1H-1-Pyrrolyl)phenyl]propoxy}ethyl)-1H-imidazo[4,5-c]quinolin-4-amine trifluoroacetate]: the melting point – broadly, the temperature, or range, at which the solid turns liquid – was 179 to 181 °C.
For `Nc1nc2ccccc2c2c1ncn2CCOCCCc1cccc(C(=O)O)c1` (as salt: trifluoroacetate) [Example 12, 3-{3-[2-(4-Amino-1H-imidazo[4,5-c]quinolin-1-yl)ethoxy]propyl}benzoic acid bis(trifluoroacetate)], the melting point lay within 138 to 140 °C.
For the compound `Nc1nc2ccccc2c2c1ncn2CCOCCCc1ccccc1C(=O)O` (as salt: trifluoroacetate) [Example 13, 2-{3-[2-(4-Amino-1H-imidazo[4,5-c]quinolin-1-yl)ethoxy]propyl}benzoic acid trifluoroacetate], the melting point was 186 to 188 °C.
`Nc1nc2ccccc2c2c1ncn2CCOCCCc1ccc(C(=O)O)cc1` (as salt: trifluoroacetate) [Example 14, 4-{3-[2-(4-Amino-1H-imidazo[4,5-c]quinolin-1-yl)ethoxy]propyl}benzoic acid trifluoroacetate]: the melting point lay in the range of 235 to 237 °C.
`CN(C)c1ccc(CCCOCCn2cnc3c(N)nc4ccccc4c32)cc1` (as salt: trifluoroacetate) [Example 114, 1-(2-{3-[4-(Dimethylamino)phenyl]propoxy}ethyl)-1H-imidazo[4,5-c]quinolin-4-amine] displayed a melting point of 137 to 140 °C.
For the compound `C#CCOCCn1cnc2c(N)nc3ccccc3c21` [Example 1, 1-[2-(2-Propynyloxy)ethyl]-1H-imidazo[4,5-c]quinolin-4-amine], the melting point is 225 to 227 °C. Further, the minimal effective concentration in data set [1] (setting [2]) was 0.12 µM. Also, in data set [1] (setting [3]), the minimal effective concentration was found to be 1.11 µM.
`N#Cc1ccccc1C#CCOCCn1cnc2c(N)nc3ccccc3c21` [Example 2, 2-{3-[2-(4-Amino-1H-imidazo[4,5-c]quinolin-1-yl)ethoxy]-1-propynyl}benzonitrile]: the melting point fell in the range of 180 to 183 °C. Also, the minimal effective concentration in data set [1] (setting [2]) was determined as 1.11 µM. Besides, in data set [1] (setting [4]), the “Lowest Effective Concentration (μM) Tumor Necrosis Factor” value is “*”.
In turn, `Nc1nc2ccccc2c2c1ncn2CCOCC#Cc1ccccc1` [Example 3, 1-{2-[(3-Phenyl-2-propynyl)oxy]ethyl}-1H-imidazo[4,5-c]quinolin-4-amine] gave a melting point of 196 to 197 °C. Moreover, the minimal effective concentration in data set [1] (setting [2]) amounted to 0.12 µM. Further, the minimal effective concentration in data set [1] (setting [3]) worked out at 3.33 µM.
For the compound `Cl.Nc1nc2ccccc2c2c1ncn2CCOCC#Cc1ccccc1` [Example 4, 1-{2-[(3-Phenyl-2-propynyl)oxy]ethyl}-1H-imidazo[4,5-c]quinolin-4-amine Hydrochloride], the melting point lay in the range of 231 to 236 °C. For the same compound, the minimal effective concentration in data set [1] (lowest concentration found to induce interferon (α), ELISA, read-out: Lowest Effective Concentration (μM) Interferon) is 0.12 µM. Also, in data set [1] (setting [4]), the “Lowest Effective Concentration (μM) Tumor Necrosis Factor” value was “*”.
Regarding `COc1ccc(CCCOCCn2cnc3c(N)nc4ccccc4c32)cc1` [Example 5, 1-{2-[3-(4-Methoxyphenyl)propoxy]ethyl}-1H-imidazo[4,5-c]quinolin-4-amine], the melting point lay in the range of 116 to 118 °C. The minimal effective concentration in data set [1] (setting [2]) turned out to be 0.12 µM. The minimal effective concentration in data set [1] (setting [3]) worked out at 1.11 µM.
Regarding `CNS(=O)(=O)c1ccc(C)c(CCCOCCn2cnc3c(N)nc4ccccc4c32)c1` [Example 6, N^1,4-Dimethyl-3-{3-[2-(4-amino-1H-imidazo[4,5-c]quinolin-1-yl)ethoxy]propyl}-1-benzensulfonamide], the melting point lay in the range of 207 to 209 °C. Further, the minimal effective concentration in data set [1] (setting [2]) was 0.12 µM. In data set [1] (setting [4]), the “Lowest Effective Concentration (μM) Tumor Necrosis Factor” value is “*”.
`Cc1cccc(C)c1C#CCOCCn1cnc2c(N)nc3ccccc3c21` [Example 8, 1-(2-{[3-(2,6-Dimethylphenyl)-2-propynyl]oxy}ethyl)-1H-imidazo[4,5-c]quinolin-4-amine] displayed a melting point of 200 to 201 °C. Further, in data set [1] (setting [2]), the minimal effective concentration turned out to be 1.11 µM. Also, the minimal effective concentration in data set [1] (setting [3]) stood at 10 µM.
As to `Nc1nc2ccccc2c2c1ncn2CCOCC#Cc1ccc(Oc2ccccc2)cc1` [Example 9, 1-(2-{[3-(4-Phenoxyphenyl)-2-propynyl]oxy}ethyl)-1H-imidazo[4,5-c]quinolin-4-amine], the melting point lay in the range of 146 to 148 °C. Also, the “Lowest Effective Concentration (μM) Interferon” value in data set [1] (setting [5]) is given as “*”. The “Lowest Effective Concentration (μM) Tumor Necrosis Factor” value in data set [1] (setting [4]) is on record as “*”.
Compound `Nc1nc2ccccc2c2c1ncn2CCOCC#Cc1ccccc1C(F)(F)F` [Example 10, 1-[2-({3-[2-(Trifluoromethyl)phenyl]-2-propynyl}oxy)ethyl]-1H-imidazo[4,5-c]quinolin-4-amine] gave a melting point of 154 to 155 °C. Further, in data set [1] (setting [2]), the minimal effective concentration amounted to 1.11 µM. Further, the minimal effective concentration in data set [1] (setting [3]) came out at 10 µM.
Take `CCC(COCc1cccc(Cl)c1)n1cnc2c(N)nc3ccccc3c21` (stereo not drawn) [Example 17, 1-(1-{[(3-Chlorobenzyl)oxy]methyl}propyl)-1H-imidazo[4,5-c]quinolin-4-amine]: the melting point was in the range of 60 to 62 °C. Further, the minimal effective concentration in data set [1] (setting [2]) was determined as 0.12 µM. The minimal effective concentration in data set [1] (setting [3]) was determined as 0.37 µM.
Take `N#Cc1ccc(COCCn2cnc3c(N)nc4ccccc4c32)cc1` [Example 19, 4-{[2-(4-Amino-1H-imidazo[4,5-c]quinolin-1-yl)ethoxy]methyl}benzonitrile]: the melting point lay in the range of 238.1 to 239.2 °C. In data set [1] (setting [2]), the minimal effective concentration turned out to be 0.37 µM. The “Lowest Effective Concentration (μM) Tumor Necrosis Factor” value in data set [1] (setting [4]) was “*”.
The matching figures for `Cc1ccc(C#CCOCCn2cnc3c(N)nc4ccccc4c32)cc1C` [Example 23, 1-(2-{[3-(3,4-Dimethylphenyl)-2-propynyl]oxy}ethyl]-1H-imidazo[4,5-c]quinolin-4-amine]: 214 to 216 °C, 1.11 µM and “*”.
As for `CC[C@H](COCC#Cc1ccccc1)n1cnc2c(N)nc3ccccc3c21` [Example 108, 1-((1R)-1-{[(3-Phenylprop-2-ynyl)oxy]methyl}propyl)-1H-imidazo[4,5-c]quinolin-4-amine], the melting point is 63 to 67 °C. Moreover, in data set [1] (setting [2]), the minimal effective concentration was determined as 0.00017 µM. Moreover, the minimal effective concentration in data set [1] (setting [3]) turned out to be 0.04 µM.
Regarding `Nc1nc2ccccc2c2c1ncn2COCc1ccccc1` [Example 113, 1-[(Benzyloxy)methyl]-1H-imidazo[4,5-c]quinolin-4-amine], the melting point was in the range of 168 to 172 °C. In addition, the minimal effective concentration in data set [1] (setting [2]) is 1.11 µM. For the same compound, the “Lowest Effective Concentration (μM) Tumor Necrosis Factor” value in data set [1] (setting [4]) is given as “*”.
Consider `Nc1nc2ccccc2c2c1ncn2CCOC/C=C/c1ccccc1` [Example 115, 1-(2-{[(2E)-3-Phenylprop-2-enyl]oxy}ethyl)-1H-imidazo[4,5-c]quinolin-4-amine], for which the melting point was in the range of 183.7 to 184.3 °C. Moreover, the minimal effective concentration in data set [1] (setting [2]) was 0.12 µM. The minimal effective concentration in data set [1] (setting [3]) came to 1.11 µM.
The compound `CCCCCCCCc1nc2c(N)nc3ccccc3c2n1CCOCC#Cc1ccccc1` [Example 116, 2-Octyl-1-{2-[(3-phenylprop-2-ynyl)oxy]ethyl}-1H-imidazo[4,5-c]quinolin-4-amine] came in with a melting point of 138 to 138.7 °C. In data set [1] (setting [5]), the “Lowest Effective Concentration (μM) Interferon” value is “*”. The “Lowest Effective Concentration (μM) Tumor Necrosis Factor” value in data set [1] (setting [4]) is “*”.
`CCCCCCCCc1nc2c(N)nc3ccccc3c2n1CCOCCCc1ccccc1` [Example 117, 2-Octyl-1-[2-(3-phenylpropoxy)ethyl]-1H-imidazo[4,5-c]quinolin-4-amine] gave a melting point of 103.8 to 104.5 °C. Further, the “Lowest Effective Concentration (μM) Interferon” value in data set [1] (setting [5]) is “*”. Also, in data set [1] (setting [4]), the “Lowest Effective Concentration (μM) Tumor Necrosis Factor” value is reported as “*”.
`Cc1nc2c(N)nc3ccccc3c2n1CCOCCCc1ccccc1` [Example 119, 2-Methyl-1-[2-(3-phenylpropoxy)ethyl]-1H-imidazo[4,5-c]quinolin-4-amine] gave a melting point of 129.7 to 130.7 °C. Besides, in data set [1] (setting [2]), the minimal effective concentration turned out to be 0.01 µM. For the same compound, the minimal effective concentration in data set [1] (setting [3]) stood at 0.12 µM.
Regarding `COCCc1nc2c(N)nc3ccccc3c2n1CCOCC#Cc1ccccc1` [Example 120, 2-(Methoxyethyl)-1-{2-[(3-phenylprop-2-ynyl)oxy]ethyl}-1H-imidazo[4,5-c]quinolin-4-amine], the melting point was 134.5 to 135.5 °C. Also, in data set [1] (setting [2]), the minimal effective concentration was determined as 0.01 µM. Moreover, in data set [1] (setting [3]), the minimal effective concentration amounted to 0.01 µM.
In the case of `COCCc1nc2c(N)nc3ccccc3c2n1CCOCCCc1ccccc1` [Example 121, 2-(2-Methoxyethyl)-1-[2-(3-phenylpropoxy)ethyl]-1H-imidazo[4,5-c]quinolin-4-amine], the melting point lay within 103.8 to 104.5 °C. The minimal effective concentration in data set [1] (setting [2]) was determined as 0.01 µM. Further, the minimal effective concentration in data set [1] (setting [3]) amounted to 0.04 µM.
In the case of `Nc1nc2ccccc2c2c1nc(CC1CC1)n2CCOc1ccccc1` [Example 137, 2-(Cyclopropylmethyl)-1-(2-phenoxyethyl)-1H-imidazo[4,5-c]quinolin-4-amine], the melting point fell in the range of 191.7 to 192.6 °C.
